pKd: −log10 of the molar value. Where “and” joins values, the source holds several entries; their conditions need not be identical. Equal entries are not always repeated. Where two headings read alike, the source gives them in different places.
Experiments:
[1] = target: regulatory subunit of the cAMP dependent protein kinase (PKA) from Dictyostelium (Dictyostelium discoideum, UniProt P05987); settings: read-out: KD for cAMP; Dictyostelium R subunit, background section; cited from earlier work
[2] = target: T1, R26-GFP (truncated R subunit of cAMP dependent protein kinase (PKA), cAMP binding site A, fused to w7 GFP) (Dictyostelium discoideum, UniProt P05987); test: FRET titration and competition for cyclic nucleotide binding to purified R26-GFP
T1 sequence (P05987 1-170): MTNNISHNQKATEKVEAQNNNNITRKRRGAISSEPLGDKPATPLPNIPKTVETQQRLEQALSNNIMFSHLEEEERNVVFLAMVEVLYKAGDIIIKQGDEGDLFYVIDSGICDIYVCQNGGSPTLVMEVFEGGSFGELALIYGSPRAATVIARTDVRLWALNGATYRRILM
Experimental: Fluorescently labelled cGMP (8-{{2-{(Fluoresceinylthioureido)amino}ethyl}thio} guanosine-3′, 5′-cyclic, Biolog) was added to purified R26-GFP and fluorescence emission recorded while exciting at 433 nm.
In a further experiment, unlabelled cAMP was added in a 5 fold excess over 8-fluo-cGMP.
The concentration of labelled 8-fluo-cGMP was varied while recording fluorescence changes (FIG. 3, inset).
In order to measure the real KD for cAMP, a competition experiment was performed by varying stepwise 8-fluo-cGMP concentration For each 8-fluo-cGMP concentration, increasing concentrations of unlabelled cAMP was added, allowing to calculate the apparent KD for cAMP in each Case (FIG. 4).
For FRET measurements, R-26-GFP was diluted to about 0.1 μM. Excitation was performed at 433 nm, while emission was recorded over a range from 450 to 550 nm in a PTI C60 spectrofluorimeter (Photon Technology International).
Different concentrations of 8-Fluo-cGMP (8-{{2-{(Fluoresecinylthioureido)amino}ethyl}thio} guanosine 3′, 5′-cyclic monophosphate, Biolog) were added as indicated (5 fold excess in FIG. 2, open squares) and emission spectra were recorded again. […] In competition experiments, unlabelled cAMP was added at the indicated concentrations (FIG. 3, 100 μM).

[3] = tested on: double GFP-R (R subunit with w7 and S65T GFPs flanking cAMP binding site A); settings: 500 μM cAMP, emission spectrum, excitation 434 nm
Experimental: The spectral properties of the double GFP-R were determined using a spectrofluorimeter PTI C60 with photomultiplicator. […] The shoulder corresponds to the emission of the w7, whereas the major peak represents S65T emission.
A conformational change could also result simply from the binding of cAMP. The double GFP-R was incubated with increasing concentrations of cAMP.
Emission spectra from 450 to 550 nm were recorded using a fixed excitation at 434 nm with a bandwidth of 8 nm and an integration time between 0.2 and 1 sec (FIG. 6).
In a second experiment, partially purified double GFP-R was incubated in the presence of increasing concentration of cAMP (FIG. 6B).

[4] = target: mammalian enzymes (PKA regulatory subunit); settings: read-out: KD for cAMP, background section; cited from earlier work

Sequence of regulatory subunit of the cAMP dependent protein kinase (PKA) from Dictyostelium (P05987 whole entry, the tested form may be a part): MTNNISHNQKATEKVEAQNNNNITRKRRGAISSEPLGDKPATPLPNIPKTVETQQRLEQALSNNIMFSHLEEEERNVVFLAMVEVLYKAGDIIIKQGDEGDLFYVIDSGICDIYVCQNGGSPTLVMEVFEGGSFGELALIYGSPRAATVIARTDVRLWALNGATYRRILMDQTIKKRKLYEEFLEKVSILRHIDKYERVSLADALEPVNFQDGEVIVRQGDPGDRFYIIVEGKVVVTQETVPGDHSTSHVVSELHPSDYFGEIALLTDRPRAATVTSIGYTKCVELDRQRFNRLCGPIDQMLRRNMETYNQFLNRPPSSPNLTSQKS

For `Nc1ncnc2c1ncn2[C@@H]1O[C@@H]2COP(=O)(O)O[C@H]2[C@H]1O` [cAMP], the pKd [1] is listed as ~7.70, the pKd ([2]; true KD for cAMP, competition of unlabelled cAMP with 8-fluo-cGMP, apparent KDs extrapolated to 0) is listed as 7.70 and ~7.70 and the “amplitude change compared to double GFP/R alone” value [3] is listed as “about 10%”. For the same compound, the pKd [4] was 7.52 to 8.00.
With `Nc1nc2c(nc(SCCNC(=S)Nc3ccc4c(c3)C(=O)OC43c4ccc(O)cc4Oc4cc(O)ccc43)n2[C@@H]2O[C@@H]3COP(=O)(O)O[C@H]3[C@H]2O)c(=O)[nH]1` [8-fluo-cGMP, 8-{{2-{(Fluoresecinylthioureido)amino}ethyl}thio} guanosine 3′, 5′-cyclic monophosphate] the pKd [2] was ~7.10.
For `Nc1nc2c(ncn2[C@@H]2O[C@@H]3COP(=O)(O)O[C@H]3[C@H]2O)c(=O)[nH]1` [cGMP], the pKd ([2]; reverse competition experiment, read-out: KD for cGMP) was ~5.73.
`Nc1ncnc2c1nc(SCCNC(=S)Nc1ccc3c(c1)C(=O)OC31c3ccc(O)cc3Oc3cc(O)ccc31)n2[C@@H]1O[C@@H]2COP(=O)(O)O[C@H]2[C@H]1O` [8-fluo-cAMP, 8-{{2-{(Fluoresceinylthioureido)amino}ethyl}thio}adenosine-3′,5′-cyclic monophosphate] showed a pKd [2] of ~8.35.

— patent US6573059B1, “Use of the regulatory subunit of the camp dependent protein kinase (PKA) from dictyostelium for camp measurements” (RMF Dictagene S.A., priority 2000, dated 2003)
